Values of other authors, collected in patent publication US11930809B2, “Preservation of biomaterial properties and methods of storing” (LIFELINE SCIENTIFIC, INC., priority 2012, dated 2024).

Columns and labels:
[1] = system: chondrocytes in articular cartilage; settings: conventional cryopreservation by freezing in a solution that includes DMSO
[2] = early Phase clinical studies

Compound: COC(=O)C1=CO[C@@H](O)[C@@H]2C(CO)=CC[C@H]12 [genipin]
- expression of TIMP-1 (TIMP-1): upregulate the expression of TIMP-1

Compound: C[S+](C)[O-] [DMSO, dimethyl sulfoxide]
- death of chondrocytes in articular cartilage [1]: 80-100%

Compound: PCK3145: synthetic peptide corresponding to amino acids 31-45 of prostate secretory protein 94 (EWQTDNCETCTCYET; UniProt P08118 51-65, looked up, fragment)
- tolerability [2]: well tolerated
